Measurements reported in ChEMBL document CHEMBL1649268, “Comparative in vitro activity profile of oritavancin against recent gram-positive clinical isolates” (2009).

Key:
[1] = Antimicrobial activity against Streptococcus Group G clinical isolates assessed as percent susceptible isolates by broth microdilution method; type: functional, Streptococcus sp. 'group G'
[2] = system: Streptococcus pneumoniae; test: Antimicrobial activity against Streptococcus pneumoniae clinical isolates by broth microdilution method; type: functional
[3] = system: Streptococcus pneumoniae; test: Antimicrobial activity against penicillin-susceptible Streptococcus pneumoniae clinical isolates assessed as percent susceptible isolates by broth microdilution method; type: functional
[4] = system: Streptococcus; test: Antimicrobial activity against Streptococcus Group F clinical isolates assessed as resistant isolates by broth microdilution method; type: functional
[5] = Antimicrobial activity against erythromycin-nonsusceptible Streptococcus Group G clinical isolates by broth microdilution method; type: functional; conditions: Streptococcus sp. 'group G'
[6] = system: Streptococcus agalactiae; test: Antimicrobial activity against erythromycin-susceptible Streptococcus agalactiae clinical isolates by broth microdilution method; type: functional
[7] = Antimicrobial activity against Streptococcus Group G clinical isolates by broth microdilution method; type: functional; conditions: Streptococcus sp. 'group G'
[8] = Antimicrobial activity against erythromycin-nonsusceptible Streptococcus Group C clinical isolates by broth microdilution method; type: functional; conditions: Streptococcus sp. 'group C'
[9] = system: Streptococcus pyogenes; test: Antimicrobial activity against erythromycin-susceptible Streptococcus pyogenes clinical isolates assessed as resistant isolates by broth microdilution method; type: functional
[10] = system: Streptococcus; test: Antimicrobial activity against erythromycin-nonsusceptible Streptococcus Group F clinical isolates assessed as resistant isolates by broth microdilution method; type: functional
[11] = Antimicrobial activity against erythromycin-susceptible Streptococcus Group C clinical isolates by broth microdilution method; type: functional; conditions: Streptococcus sp. 'group C'
[12] = Antimicrobial activity against erythromycin-nonsusceptible Streptococcus Group G clinical isolates assessed as resistant isolates by broth microdilution method; type: functional, Streptococcus sp. 'group G'
[13] = system: Streptococcus pneumoniae; test: Antimicrobial activity against penicillin-intermediate Streptococcus pneumoniae clinical isolates assessed as percent susceptible isolates by broth microdilution method; type: functional
[14] = system: Streptococcus; test: Antimicrobial activity against erythromycin-susceptible Streptococcus Group F clinical isolates by broth microdilution method; type: functional
[15] = system: Streptococcus pyogenes; test: Antimicrobial activity against Streptococcus pyogenes clinical isolates assessed as percent susceptible isolates by broth microdilution method; type: functional
[16] = Antimicrobial activity against Streptococcus Group C clinical isolates assessed as resistant isolates by broth microdilution method; type: functional, Streptococcus sp. 'group C'
[17] = system: Streptococcus pneumoniae; test: Antimicrobial activity against Streptococcus pneumoniae clinical isolates assessed as percent susceptible isolates by broth microdilution method; type: functional
[18] = system: Streptococcus; test: Antimicrobial activity against erythromycin-nonsusceptible Streptococcus Group F clinical isolates by broth microdilution method; type: functional
[19] = Antimicrobial activity against Streptococcus Group C clinical isolates assessed as percent susceptible isolates by broth microdilution method; type: functional, Streptococcus sp. 'group C'
[20] = system: Streptococcus pneumoniae; test: Antimicrobial activity against Streptococcus pneumoniae clinical isolates assessed as resistant isolates by broth microdilution method; type: functional
[21] = system: Streptococcus pyogenes; test: Antimicrobial activity against Streptococcus pyogenes clinical isolates assessed as resistant isolates by broth microdilution method; type: functional
[22] = system: Streptococcus pyogenes; test: Antimicrobial activity against erythromycin-susceptible Streptococcus pyogenes clinical isolates assessed as percent susceptible isolates by broth microdilution method; type: functional
[23] = system: Streptococcus agalactiae; test: Antimicrobial activity against Streptococcus agalactiae clinical isolates by broth microdilution method; type: functional
[24] = Antimicrobial activity against erythromycin-nonsusceptible Streptococcus Group G clinical isolates assessed as percent susceptible isolates by broth microdilution method; type: functional, Streptococcus sp. 'group G'
[25] = system: Streptococcus agalactiae; test: Antimicrobial activity against erythromycin-nonsusceptible Streptococcus agalactiae clinical isolates assessed as percent susceptible isolates by broth microdilution method; type: functional
[26] = system: Streptococcus; test: Antimicrobial activity against erythromycin-susceptible Streptococcus Group F clinical isolates assessed as percent susceptible isolates by broth microdilution method; type: functional
[27] = system: Streptococcus pneumoniae; test: Antimicrobial activity against penicillin-intermediate Streptococcus pneumoniae clinical isolates by broth microdilution method; type: functional
[28] = system: Streptococcus pneumoniae; test: Antimicrobial activity against penicillin-susceptible Streptococcus pneumoniae clinical isolates by broth microdilution method; type: functional
[29] = system: Streptococcus agalactiae; test: Antimicrobial activity against Streptococcus agalactiae clinical isolates assessed as percent susceptible isolates by broth microdilution method; type: functional
[30] = system: Streptococcus pyogenes; test: Antimicrobial activity against erythromycin-susceptible Streptococcus pyogenes clinical isolates by broth microdilution method; type: functional
[31] = system: Streptococcus pyogenes; test: Antimicrobial activity against erythromycin-nonsusceptible Streptococcus pyogenes clinical isolates by broth microdilution method; type: functional
[32] = system: Streptococcus; test: Antimicrobial activity against Streptococcus Group F clinical isolates by broth microdilution method; type: functional
[33] = system: Streptococcus agalactiae; test: Antimicrobial activity against Streptococcus agalactiae clinical isolates assessed as resistant isolates by broth microdilution method; type: functional
[34] = Antimicrobial activity against erythromycin-susceptible Streptococcus Group G clinical isolates by broth microdilution method; type: functional; conditions: Streptococcus sp. 'group G'
[35] = Antimicrobial activity against erythromycin-susceptible Streptococcus Group C clinical isolates assessed as percent susceptible isolates by broth microdilution method; type: functional, Streptococcus sp. 'group C'
[36] = system: Streptococcus agalactiae; test: Antimicrobial activity against erythromycin-nonsusceptible Streptococcus agalactiae clinical isolates assessed as resistant isolates by broth microdilution method; type: functional
[37] = Antimicrobial activity against erythromycin-nonsusceptible Streptococcus Group C clinical isolates assessed as percent susceptible isolates by broth microdilution method; type: functional, Streptococcus sp. 'group C'
[38] = system: Streptococcus; test: Antimicrobial activity against erythromycin-nonsusceptible Streptococcus Group F clinical isolates assessed as percent susceptible isolates by broth microdilution method; type: functional
[39] = Antimicrobial activity against erythromycin-susceptible Streptococcus Group G clinical isolates assessed as resistant isolates by broth microdilution method; type: functional, Streptococcus sp. 'group G'
[40] = system: Streptococcus pneumoniae; test: Antimicrobial activity against penicillin-resistant Streptococcus pneumoniae clinical isolates by broth microdilution method; type: functional
[41] = Antimicrobial activity against erythromycin-nonsusceptible Streptococcus Group C clinical isolates assessed as resistant isolates by broth microdilution method; type: functional, Streptococcus sp. 'group C'
[42] = system: Streptococcus; test: Antimicrobial activity against Streptococcus Group F clinical isolates assessed as percent susceptible isolates by broth microdilution method; type: functional
[43] = system: Streptococcus; test: Antimicrobial activity against erythromycin-susceptible Streptococcus Group F clinical isolates assessed as resistant isolates by broth microdilution method; type: functional
[44] = Antimicrobial activity against Streptococcus Group G clinical isolates assessed as resistant isolates by broth microdilution method; type: functional, Streptococcus sp. 'group G'
[45] = Antimicrobial activity against erythromycin-susceptible Streptococcus Group C clinical isolates assessed as resistant isolates by broth microdilution method; type: functional, Streptococcus sp. 'group C'
[46] = system: Streptococcus agalactiae; test: Antimicrobial activity against erythromycin-susceptible Streptococcus agalactiae clinical isolates assessed as percent susceptible isolates by broth microdilution method; type: functional
[47] = system: Streptococcus pyogenes; test: Antimicrobial activity against erythromycin-nonsusceptible Streptococcus pyogenes clinical isolates assessed as resistant isolates by broth microdilution method; type: functional
[48] = system: Streptococcus agalactiae; test: Antimicrobial activity against erythromycin-nonsusceptible Streptococcus agalactiae clinical isolates by broth microdilution method; type: functional
[49] = Antimicrobial activity against Streptococcus Group C clinical isolates by broth microdilution method; type: functional; conditions: Streptococcus sp. 'group C'
[50] = system: Streptococcus pyogenes; test: Antimicrobial activity against erythromycin-nonsusceptible Streptococcus pyogenes clinical isolates assessed as percent susceptible isolates by broth microdilution method; type: functional
[51] = system: Streptococcus pyogenes; test: Antimicrobial activity against Streptococcus pyogenes clinical isolates by broth microdilution method; type: functional
[52] = Antimicrobial activity against erythromycin-susceptible Streptococcus Group G clinical isolates assessed as percent susceptible isolates by broth microdilution method; type: functional, Streptococcus sp. 'group G'
[53] = system: Streptococcus agalactiae; test: Antimicrobial activity against erythromycin-susceptible Streptococcus agalactiae clinical isolates assessed as resistant isolates by broth microdilution method; type: functional

CC1(C)S[C@@H]2[C@H](NC(=O)Cc3ccccc3)C(=O)N2[C@H]1C(=O)O [PENICILLIN G]
1 µg/mL: MIC90 [27]
0.03 µg/mL: MIC90 [5] | MIC90 [8] | MIC90 [18] | MIC90 [31]
2 µg/mL: MIC90 [2]
0.06 µg/mL: MIC90 [6] | MIC90 [7] | MIC90 [11] | MIC90 [14] | MIC90 [23] | MIC90 [32] | MIC90 [34] | MIC90 [48] | MIC90 [49]
14.7%: Resistant isolates [20]
0%: Activity [4] | Activity [9] | Activity [10] | Activity [12] | Activity [13] | Activity [16] | Activity [21] | Activity [33] | Activity [36] | Activity [39] | Activity [41] | Activity [43] | Activity [44] | Activity [45] | Activity [47] | Activity [53]
≤ 0.03 µg/mL: MIC [28] | MIC90 [28] | MIC90 [30] | MIC90 [51]
4 µg/mL: MIC90 [40]
64%: Activity [17]
100%: Activity [1] | Activity [3] | Activity [15] | Activity [19] | Activity [22] | Activity [24] | Activity [25] | Activity [26] | Activity [29] | Activity [35] | Activity [37] | Activity [38] | Activity [42] | Activity [46] | Activity [50] | Activity [52]
